In patent US12629388B2, “Intradialytic use of sodium nitrite” (Hope Medical Enterprises, Inc., priority 2017, dated 2026):
Where two headings read alike, the source gives them in different places.

Legend:
[1] = Procedure: Example 1 was performed to determine the stability of sodium nitrite in aqueous solution when acid is added. A 100 mL sample of sodium nitrite solution with a concentration of 30 mg/mL was tested for the presence of nitrogen oxide gases (NO, NO2, N2O3, and N2O4) using an Orion Model 95-46 Nitrogen Oxide (NOx) electrode and a pH meter. With constant stirring, the mV reading with the NOx electrode and pH reading with the pH electrode were recorded after successive additions of 100 μL of either 0.02 N or 1 N hydrochloric acid.
[2] = dialysate bicarbonate concentrate; for Nitrite Concentration by Assay: room temperature, expected 38.1 mg/L
Procedure: (§1) Concentration of nitrite in samples was assayed by ion chromatography. The ion chromatograph was equipped with a conductivity detector, self-regenerating suppression system, eluent generator, and a Dionex IonPacAS19 analytical column. The nitrite concentration in the samples was measured and calculated against an external sodium nitrite standard. USP Sodium Nitrite Reference Standard (Item Number 1614454) was the testing standard (United States Pharmacopeia. Rockville, Maryland).
Example 2 was performed to determine the stability of sodium nitrite in dialysate bicarbonate concentrate solution. At room temperature, 300 mg sodium nitrite was added to 7,700 mL of dialysate bicarbonate concentrate solution. The nitrite concentration of the dialysate bicarbonate concentrate solution was analyzed by ion chromatography 1) before addition of sodium nitrite; 2) 5 minutes after the addition of sodium nitrite; and 3) 2 hours after the addition of sodium nitrite.

[3] = mixed dialysate exiting Fresenius 2008K hemodialysis machine; expected 1.46 mg/L
Procedure: as §1
The machine was primed in bypass mode (dialysate and ultrafiltration rates set at zero) using normal saline.

[4] = pre-mixed 1 L dialysate, pH 7.32 at 24.4° C. after addition; expected 2.997 mg/L
Procedure: as §1

[5] = for Nitrite Concentration After Addition of Sodium Nitrite (Time = 60 Min): average of two samples
Procedure: as §1
Dialysate bicarbonate concentrate solution was prepared by adding 1 package of Centrisol® MB-330 Series Sodium Bicarbonate Concentrate powder (650 g) to 7.7 liters of purified water.
The hemodialysis machine mixed the bicarbonate concentrate solution and acid concentrate solution with the dilution ratio of 1 part of an acid concentrate solution, 1.72 parts of a bicarbonate concentrate solution, and 42.38 parts of purified water. The machine was primed in bypass mode (dialysate and ultrafiltration rates set at zero) using normal saline. After priming, the hemodialysis machine was run in “Therapy Mode” with the following settings: blood flow rate 300 ml/minute, dialysate flow rate 600 mL/minute, ultrafiltration rate 0 mL/minute.
An aqueous solution of sodium nitrite was prepared by dissolving 3 mg of sodium nitrite in 1 liter of purified water. […] This valve was placed in the dialysate tubing approximately eight inches upstream of the dialyzer (pre-filter). Two sampling ports were placed four inches upstream (pre-dialyzer sampling port) and ten inches downstream (post-dialyzer sampling port) from the dialyzer to collect samples of dialysate for […] assay by ion chromatography.
The infusion pump infused the sodium nitrite solution into the tubing through the valve at a rate of 250 mL/hour (4.16 mL/minute).
Normal saline flowed into the dialyzer at a rate of 300 mL/minute from the Arterial line and exited the dialyzer through the Venous line. Samples of saline were collected from the venous side of the dialyzer.

[6] = during the first hour of hemodialysis; cited from earlier work

Compound: O=NO [Sodium Nitrite, sodium nitrite]
- pH at which nitrogen oxides was detected ([1]; 30 mg/mL solution, successive addition of hydrochloric acid, detection limit 1 ppm NOx): 6.7
- initial pH of the sodium nitrite solution ([1]; 100 mL solution, 30 mg/mL, before acid addition): 8.73
- response of the Nitrogen Oxide electrode ([1]; at pH 4.9): 99.5 mV
- response of the Nitrogen Oxide electrode ([1]; at pH 6.7): 8.0 mV
- stability on exposure to acid (in words) ([1]; extent of decomposition generally inversely proportional to the pH): decomposes when exposed to acid
- Nitrate Concentration ([2]; 5 minutes after addition): None
- Nitrite Concentration by Assay ([2]; 5 minutes after addition): 38.0 mg/L
- Nitrate Concentration ([2]; 2 hours after addition): None
- Nitrite Concentration by Assay ([2]; 2 hours after addition): 38.5 mg/L
- Nitrite Concentration by Assay [3]: None
- Nitrite Concentration by Assay [4]: 1.149 mg/L
- Nitrite Concentration After Addition of Sodium Nitrite (Time = 60 Min) ([5]; dialysate after dialyzer): 235 nM
- Nitrite Concentration After Addition of Sodium Nitrite (Time = 60 Min) ([5]; dialysate before dialyzer, 3 mg/L solution infused at 250 mL/hour, dialysate flow 600 mL/minute): 451 nM
- stability when mixed with dialysate within dialysate tubing (in words) ([5]; infused between the hemodialysis machine and the dialyzer membrane): stable
- Nitrite Concentration After Addition of Sodium Nitrite (Time = 60 Min) ([5]; saline solution after dialyzer (venous side)): 183 nM
- decline of the concentration of nitrite in the plasma [6]: over 60%
